This note sets out measurements from article PMC8481502, “Bovine NK-lysin peptides exert potent antimicrobial activity against multidrug-resistant Salmonella outbreak isolates” (Scientific Reports, 2021).

In data set [1] the test system is MDR Salmonella enterica serovar I 4,[5],12:i:- strain USDA15WA-1 (SX238). Put plainly: Growth curve assay (automated reader, OD600) with isolate SX238. The data set is classed as cell-based. As for the experimental part: (§1) Overnight cultures of a MDR Salmonella outbreak isolate (SX238) and one non-MDR Salmonella isolate (SB377) were diluted 1:1000 in LB broth to obtain approximately 1 × 10^6 colony forming units per milliliter (CFU/mL). One hundred microliters of each diluted culture were transferred into honeycomb® 100-well plates (~ 1 × 10^5 CFU/well) (Growth Curves USA, Piscataway, NJ). Bovine NK-lysin peptides (NK1, NK2A, NK2B, and NK2C) were added at the final peptide concentrations of 20, 10, 5, 3.5, 2 µM in PBS (total volume = 20 µL) with a final bacterial-peptide volume of 120 µL/well. The plates were covered with lids and placed in an automated growth curve reader (Bioscreen C; Growth Curves USA, Piscataway, NJ) which was programmed for continuous shaking at 37 °C, and optical density readings at 600 nm (OD600) were recorded every hour for 24 h. […] The optical density data were analyzed, and growth curve graphs for each isolate were generated using MS Excel. […] Twenty-four-hour growth curve assays for Salmonella isolate SX238 were repeated at different bacterial CFU (~ 1 × 10^5, 1 × 10^6, 1 × 10^7, and 1 × 10^8 CFU/mL) with NK2A (5 µM and 10 µM). Sc-NK2A was included as a control for the assay.

For data set [2], the system named is Salmonella enterica serovar Typhimurium isolate UK-1 (SB377, non-MDR). Briefly: Growth curve assay (automated reader, OD600) with isolate SB377. The data set is classed as cell-based. The note with it: LB broth, ~1 × 10^5 CFU/well, 37 °C, OD600 every hour for 24 h; tested 2-20 µM. As for the experimental part: as §1
Data set [3] has as its system MDR Salmonella enterica serovar Typhimurium DT193 strain 1434 (SX231). Briefly: Growth curve assay (automated reader, OD600) with isolate SX231. The class given is cell-based. The note with it: LB broth, 10^5 CFU/well, OD600 over 24 h.
The subject of data set [4] is MDR Salmonella enterica serovar Heidelberg (SB395). Put plainly: Growth curve assay (automated reader, OD600) with isolate SB395. The note with it: LB broth, 10^5 CFU/well, OD600 over 24 h. The data set is classed as cell-based.
The test system of data set [5] is Salmonella isolates (MDR and non-MDR). Briefly: Growth curve assay, statements over all Salmonella isolates. The class given is cell-based. Here is the method:
as §1

The subject of another data set is Swiss-Webster mice. Put plainly: Mouse study of in vivo cytotoxic effects. The note with it: single intraperitoneal dose 100 µg (~ 4 mg/kg) in PBS, female Swiss-Webster mice, 5 per cage, 2-week observation. Here is the method:
To determine whether NK-lysin peptides show in vivo cytotoxic effects, a mouse study was conducted. Briefly, thirty 5–6 weeks old female Swiss-Webster mice (Envigo, Indianapolis, IN) were housed in groups in six individual cages (5 mice per cage) in ABSL2 facilities with ad libitum access to food and water in a 12-h light:dark cycle. After 1 week of acclimation, mice were intraperitoneally injected with a single dose of 100 µg of NK-lysin peptides (NK1, NK2A, NK2B, NK2C, or Sc-NK2A, ~ 4 mg/kg of body weight) in PBS (1 mL). Mice injected with PBS (1 mL) served as a negative control for the study. Mice were daily observed for any signs of toxicity and were euthanized 2 weeks post peptide administration.

The next data set relates to Salmonella SX238. Put plainly: LIVE/DEAD BacLight staining, confocal laser scanning microscopy. The class given is cell-based, Salmonella enterica serovar I 4,[5],12:i:-. The note with it: 5 µM peptide. As for the experimental part:
The viabilities of bacteria following incubation with NK2A and Sc-NK2A were determined using culture-independent (function of the membrane integrity of the bacteria) staining technique by using LIVE/DEAD™ BacLight™ bacterial viability kit (for microscopy) as described previously. Bacteria in each treatment was visualized using a Nikon A1R + laser scanning confocal microscope (Nikon Instruments, Melville, NY) as described previously. Images were obtained using plan Apo 60 × objective lens (oil) at numerical aperture 1.4. Final figures were prepared using Adobe Photoshop Elements 11.

For data set [6], the system named is Salmonella SX238 outer- and inner-membranes. Put plainly: Transmission electron microscopy of peptide-treated bacteria. The data set is classed as cell-based, Salmonella enterica serovar I 4,[5],12:i:-. The note with it: 20 µM peptide, 1 h at 37 °C, ~1 × 10^7 CFU/well in PBS. As for the experimental part: Morphological changes of bacteria following incubation with NK2A and Sc-NK2A peptides were studied by TEM. An overnight culture of Salmonella (isolate SX238) was centrifuged and resuspended in PBS. One hundred microliters of bacterial suspension were placed in a Honeycomb plate (~ 1 × 10^7 CFU/well) and NK2A, Sc-NK2A (20 µM), and PBS were added and incubated at 37 °C with continuous shaking for 1 h. The bacterial suspensions were mixed with an equal volume of 3% glutaraldehyde in 0.1 M cacodylate buffer (pH 7.4) and processed for TEM as described before. Sections were examined with a FEI Tecnai G2 Biotwin (FEI Co., Hillboro, OR) TEM and images were taken with Advanced Microscopy Technologies (AMT Inc., Danvers, […]) imaging camera.

The test system of data set [7] is MDR Salmonella outbreak isolate SX238 cytoplasmic membrane. Put plainly: Propidium iodide (PI) uptake assay. The class given is cell-based, Salmonella enterica serovar I 4,[5],12:i:-. The note with it: 5 µM peptide, 30 min, ~1 × 10^7 CFU/well in PBS, 3 µM PI. Here is the method: The kinetics of NK2A-induced damage to Salmonella cell membranes were evaluated using PI uptake assay as described previously. Briefly, an overnight culture of MDR Salmonella outbreak isolate SX238 was centrifuged, washed with PBS, and resuspended in PBS. Ninety microliters of bacterial suspension was transferred to a 96-well opaque plate (~ 1 × 10^7 CFU/well), mixed with 10 µL of PI (final concentration = 3 µM) and incubated at 37 °C for 5 min. PBS, polymyxin B (2, 4, 25, 50 and 100 µg/mL), NK2A or Sc-NK2A (both at 2 and 5 µM) were added and PI fluorescent intensities in each well was continuously measured (15 s intervals, flex mode) using a FlexStation 3 multi-mode (fluorescent) microplate reader (Molecular Devices LLC., San Jose, CA) for up to 6 h. The excitation and emission wavelengths for PI was set up at 530 nm and 620 nm, respectively.

Data set [8] relates to Salmonella enterica serotype Typhimurium LPS; growth of isolate SX238. Put plainly: NK2A-LPS binding by growth curve assay after LPS preincubation. The class given is cell-based. Here is the method: The binding of NK2A to Salmonella LPS was studied by growth curve assay and TEM. Five micromolar NK2A (~ 2.2 µg/well) was preincubated with different amounts of Salmonella enterica serotype Typhimurium LPS (Sigma; LPS = 0, 0.5, 1.1, 2.2, 4.4, 8.8 µg/well, final volume of LPS and NK2A = 20 µL) at 37 °C in a honeycomb plate with continuous shaking for 30 min. Overnight Salmonella (isolate SX238) culture was diluted to ~ 1 × 10^6 CFU/mL and 100 µL was transferred into wells containing NK2A-LPS and further incubated at 37 °C with continuous shaking for 24 h. The optical density (OD600) data were analyzed, and growth curve graphs were generated.

Peptide text beside a SMILES is read from it.

On to `CC[C@H](C)[C@H](NC(=O)[C@H](CO)NC(=O)[C@H](CCCCN)NC(=O)[C@H](CS)NC(=O)[C@H](CC(C)C)NC(=O)CNC(=O)[C@H](CCCCN)NC(=O)[C@H](CC(C)C)NC(=O)[C@H](CC(C)C)NC(=O)[C@H](CCCNC(=N)N)NC(=O)[C@H](CCSC)NC(=O)[C@H](CCCCN)NC(=O)[C@H](CO)NC(=O)[C@H](CS)NC(=O)[C@H](CCSC)NC(=O)[C@H](CCCCN)NC(=O)[C@H](CO)NC(=O)[C@H](C)NC(=O)[C@@H](NC(=O)[C@H](CCC(=O)O)NC(=O)[C@@H](NC(=O)[C@@H](NC(=O)[C@@H](N)[C@@H](C)O)C(C)C)[C@@H](C)CC)C(C)C)C(=O)N[C@H](C(=O)N[C@@H](CCCCN)C(=O)N[C@@H](CCCNC(=N)N)C(=O)N[C@@H](Cc1ccccc1)C(=O)N[C@@H](CC(C)C)C(=O)N[C@@H](CCCNC(=N)N)C(=O)N[C@@H](CCCNC(=N)N)C(=O)O)[C@@H](C)O` [NK2A] (H-TVIEVASKMCSKMRLLKGLCKSITKRFLRR-OH; N-terminus and C-terminus assumed), for which the “duration of growth inhibition at 2 µM” value in [1] (2 µM peptide, LB broth (Fig. 1a)) was “up to 8 h”. Besides, the “growth inhibition of SX238 at different bacterial CFU” value in data set [1] (10 µM peptide, 10^5–7 CFU/mL (10^4–6 CFU/well), 24 h growth period) is recorded as “completely inhibited growth”. In addition, in data set [1] (10 µM peptide, 10^8 CFU/mL (10^7 CFU/well)), the “duration of partial growth inhibition at high inoculum” value is recorded as “up to 9 h”. Besides, the “peptide concentration at which growth of SB377 was completely inhibited” value in data set [2] is no less than 5 µM. The “peptide concentration at which growth of SX231 was inhibited” value in data set [3] is no less than 5 µM. For the same compound, the “peptide concentration at which growth of SB395 was inhibited” value in [4] is reported as no less than 5 µM. Besides, the “concentrations able to inhibit growth of Salmonella during 24 h” value in [5] (24 h incubation in LB broth, MDR and non-MDR isolates) is 3.5 to 5 µM. Moreover, the “final concentration to which three of the four isolates were sensitive” value in [5] (SX238, SX231, SB395, SB377 at 10^5 CFU/well, the three isolates are not named) was 3.5 µM. Besides, in the data set with Swiss-Webster mice, the “signs of toxicity or death” value is given as “did not show signs of toxicity or death”. In addition, the “live/dead staining result (SYTO 9 / PI)” value with Salmonella SX238 was “many dead (red) Salmonella SX238 were detected”. The “ultrastructural changes to bacterial membranes” value in data set [6] was “extensively damaged outer- and inner-membranes and cytosolic content leakage”. Besides, the PI uptake signal entry in [7] is recorded as “rapid PI uptake was observed”. Further, the “delayed bacterial growth recovery after LPS preincubation” value in [8] (5 µM (2.2 µg) NK2A preincubated 30 min with 1.1 µg and 2.2 µg LPS) lay in the range of 5 to 10 h. For the same compound, the “effect of LPS preincubation on antimicrobial activity” value in data set [8] (5 µM (2.2 µg) NK2A preincubated 30 min with 4.4 µg and 8.8 µg LPS) is given as “completely inhibited the antimicrobial activity of NK2A”.
